Activity calls are given as the source filed them.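 Rule for the calls: active = half-inhibiting concentration IC50 at or below 10 µM; inactive = IC50 above 10 µM.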
Target: Female germline-specific tumor suppressor gld-1 (Caenorhabditis elegans) (UniProt Q17339)
Assay: potency of GLD-1/TGE RNA binding inhibitors, late-stage follow-up, biochemical, fluorescence polarization, IC50, powder samples (AID 488797)
Conditions: GLD-1 / FL-TGE RNA binding

Sequence of Female germline-specific tumor suppressor gld-1 (Caenorhabditis elegans) (Q17339 whole entry, looked up): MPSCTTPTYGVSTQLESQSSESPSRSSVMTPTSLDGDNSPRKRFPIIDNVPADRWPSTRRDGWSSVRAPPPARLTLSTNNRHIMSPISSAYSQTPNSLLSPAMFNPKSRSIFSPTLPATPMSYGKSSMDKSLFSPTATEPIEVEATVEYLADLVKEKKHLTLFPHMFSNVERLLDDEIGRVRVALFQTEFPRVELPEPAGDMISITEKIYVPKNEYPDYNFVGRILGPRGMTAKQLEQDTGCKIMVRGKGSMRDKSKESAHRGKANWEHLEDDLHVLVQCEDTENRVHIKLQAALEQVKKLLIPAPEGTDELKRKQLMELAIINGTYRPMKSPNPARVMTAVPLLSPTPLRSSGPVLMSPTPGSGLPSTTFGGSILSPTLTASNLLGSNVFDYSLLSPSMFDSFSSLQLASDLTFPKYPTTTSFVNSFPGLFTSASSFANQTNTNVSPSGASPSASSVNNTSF

Structure (SMILES) | IC50
Nc1ccc(O)c2c1C(=O)c1ccccc1C2=O | 3 µM
CCOC(=O)c1c(C)oc2c1cc(NS(=O)(=O)c1ccc(C)cc1)c1ccccc12 | > 59.6 µM (inactive)
COc1ccc(C=Nc2c(-c3ccco3)nc3ccccn23)cc1OC | > 59.6 µM (inactive)
Cc1ccc(S(=O)(=O)Nc2cc3c(C(=O)Nc4ccccc4)c(C)oc3c3ccccc23)c(C)c1 | 1.14 µM
CC1=CC(=O)c2c(O)ccc(O)c2C1=O | 5.67 µM
Nc1c(O)ccc2c1C(=O)c1ccccc1C2=O | 4.17 µM
CCCCn1c(=O)[nH]c2nc3cc(NC(C)=O)ccc3nc2c1=O | 2.62 µM
O=c1[nH]c2cc3ccccc3cc2nc1C(F)(F)F | 2.5 µM
O=c1[nH]c(=O)c2nc3ccccc3nc2[nH]1 | inactive
Nc1ccc2nonc2c1[N+](=O)[O-] | > 59.6 µM (inactive)
COc1ccc(/C=C(\CC(=O)O)c2nc3ccccc3s2)cc1O | 2.17 µM
Cc1ccc(S(=O)(=O)Nc2cc3c(C(=O)Nc4ccccc4)c(C)oc3c3ccccc23)cc1 | 1.66 µM
O=C1C2=C(SCCS2)C(=O)N1CCCO | 4.73 µM
O=C(CN1C(=O)NC2(CCCCC2)C1=O)Oc1ccc2c(C(F)(F)F)cc(=O)oc2c1 | 5.62 µM
CCN(CC)S(=O)(=O)c1ccc(N2CCCC2)c(NS(=O)(=O)c2ccc(F)cc2)c1 | inactive
